Data published in ChEMBL document CHEMBL1201862, “PubChem BioAssay data set” (2004).
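Tested at 5 concentrations; 48 h exposure; 96-well plates; endpoints linearly interpolated, else capped at highest concentration. GI50 marks 50% less growth.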 The source made the active and inactive calls. Cut-off read from the data, not from the text of the source: active = GI50 up to about 1.1 µM and inactive = higher.

Key:
Experiment in all cases: NCI anticancer screen, dose series, 48 h
NCI-H460 = tested on: NCI-H460
CCRF-CEM = tested on: CCRF-CEM
SF-268 = tested on: SF-268
RXF 393 = tested on: RXF 393
BT-549 = tested on: BT-549
SNB-75 = tested on: SNB-75
LOX IMVI = tested on: LOX IMVI
ACHN = tested on: ACHN
EKVX = tested on: EKVX
OVCAR-4 = tested on: OVCAR-4
MDA-MB-231 = tested on: MDA-MB-231
A498 = tested on: A498
HOP-92 = tested on: HOP-92
NCI-H226 = tested on: NCI-H226
PC-3 = tested on: PC-3
SN12C = tested on: SN12C
SF-295 = tested on: SF-295
HCT-116 = tested on: HCT-116
DU-145 = tested on: DU-145
T47D = tested on: T47D

Measured: GI50

N#Cc1c(-c2ccc([N+](=O)[O-])cc2)c(C#N)c(=O)n(NS(=O)(=O)c2ccccc2)c1S
inactive: NCI-H460 48.8 µM | CCRF-CEM 16 µM | SF-268 30 µM | RXF 393 33 µM | BT-549 15.5 µM | SNB-75 39.6 µM | LOX IMVI 18.4 µM | ACHN 37.8 µM | EKVX 31.3 µM | OVCAR-4 > 100 µM | MDA-MB-231 21.3 µM | A498 74.6 µM | HOP-92 > 100 µM | NCI-H226 65 µM | PC-3 28.8 µM | SN12C 17.4 µM | SF-295 44.8 µM | HCT-116 19.4 µM

CCOC(=O)CC(=O)N(c1ccc(OC)cc1)C(C(=O)OC)c1ccccc1 (configuration not stated)
inactive: NCI-H460 > 100 µM | DU-145 > 100 µM | CCRF-CEM > 100 µM | SF-268 > 100 µM | T47D > 100 µM | SNB-75 61 µM | LOX IMVI > 100 µM | ACHN > 100 µM | EKVX > 100 µM | PC-3 > 100 µM | SN12C > 100 µM | SF-295 > 100 µM | HCT-116 > 100 µM

O=C1CC(c2ccccc2)n2cccc21 (configuration not stated)
inactive: DU-145 > 100 µM | CCRF-CEM > 100 µM | SF-268 > 100 µM | RXF 393 > 100 µM | T47D > 100 µM | SNB-75 > 100 µM | LOX IMVI > 100 µM | ACHN > 100 µM | EKVX > 100 µM | OVCAR-4 > 100 µM | MDA-MB-231 > 100 µM | A498 > 100 µM | HOP-92 > 100 µM | NCI-H226 > 100 µM | PC-3 > 100 µM | SN12C > 100 µM | SF-295 > 100 µM | HCT-116 > 100 µM

CC(=O)OC[C@@]12CC[C@H]3C(C)(C)CCC[C@]3(C)[C@H]1C[C@@H](C1=CC(=O)O[C@H]1O)O2
inactive: NCI-H460 8.69 µM | DU-145 7.29 µM | CCRF-CEM 1.24 µM | SF-268 10.4 µM | T47D 2.59 µM | SNB-75 3.74 µM | LOX IMVI 1.34 µM | ACHN 2.54 µM | EKVX 11.7 µM | PC-3 5.43 µM | SN12C 3.55 µM | SF-295 8.67 µM | HCT-116 2.84 µM

O=c1[nH]c(=O)c2c3n(cc2[nH]1)CCCCC3
inactive: NCI-H460 > 100 µM | DU-145 > 100 µM | CCRF-CEM > 100 µM | SF-268 > 100 µM | RXF 393 > 100 µM | T47D > 100 µM | SNB-75 > 100 µM | LOX IMVI > 100 µM | ACHN > 100 µM | EKVX > 100 µM | OVCAR-4 > 100 µM | MDA-MB-231 64.4 µM | A498 > 100 µM | HOP-92 > 100 µM | NCI-H226 > 100 µM | PC-3 > 100 µM | SN12C > 100 µM | SF-295 > 100 µM | HCT-116 > 100 µM

COc1cc(S(=O)(=O)Nc2ccc(-c3csc(N4C(=O)CSC4c4ccccc4O)n3)cc2)ccc1Cl (configuration not stated)
inactive: NCI-H460 21.4 µM | DU-145 35.4 µM | CCRF-CEM 23.3 µM | SF-268 44.8 µM | BT-549 31 µM | SNB-75 31.9 µM | LOX IMVI 34.4 µM | ACHN 32.4 µM | EKVX 25.4 µM | OVCAR-4 52.2 µM | HOP-92 29.2 µM | NCI-H226 32.9 µM | PC-3 38.1 µM | SN12C 92 µM | SF-295 72.6 µM | HCT-116 32.8 µM

CCCC(=O)/C=C/S/C=C/C(=O)CCC
inactive: NCI-H460 5.3 µM | DU-145 11.5 µM | SF-268 26.9 µM | RXF 393 4.9 µM | T47D 4.09 µM | SNB-75 27.2 µM | LOX IMVI 2.38 µM | ACHN 2.7 µM | EKVX 3.29 µM | OVCAR-4 4.42 µM | MDA-MB-231 4.84 µM | NCI-H226 3.72 µM | SN12C 13.2 µM | SF-295 23.9 µM | HCT-116 1.65 µM
